The source of these data is patent publication EP4722201A1, “3-PHENYLISOXAZOLINE-5-CARBOXAMIDE COMPOUND, AND PREPARATION METHOD THEREFOR, HERBICIDAL COMPOSITION THEREOF AND USE THEREOF” (Jiangsu Flag Chemical Industry Co., Ltd, priority 2023, dated 2024).

Usually inhibition stands for the relative decrease from the control value, in per cent.

Common to all, as to assay type: in vivo
In experiment [1] the test system is Cyperus iria. As to the kind of experiment: Indoor herbicide activity determination, post-emergence (stem and leaf spray at 2-4 leaf stage). The settings on record: 504 h, 60 g a.i./ha, determined 21 days later, read-out: Inhibition rate of fresh weight, Cyperus iria. The method, boiled down: (§1)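 Potted weeds in sandy nutrient soil (pH 6.1, 1% organic matter) were grown in a constant-temperature illuminated room to the 2-4 leaf stage, then given a stem-and-leaf spray. Plants went back to the culture room once the spray had dried in shade. At 21 days, fresh weight inhibition % was calculated relative to untreated control plants.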

Experiment [2] deals with Digitaria sanguinalis. Described as above. The settings on record: 504 h, 60 g a.i./ha, determined 21 days later, read-out: Inhibition rate of fresh weight, Digitaria sanguinalis. The method, boiled down: as §1
The test system of experiment [3] is Eclipta prostrata. The description is as above. The settings on record: 504 h, 60 g a.i./ha, determined 21 days later, read-out: Inhibition rate of fresh weight, Eclipta prostrata. An outline of the steps:
as §1

For experiment [4], the system named is Aegilops tauschii. As to the kind of experiment: Indoor herbicide activity determination, Seed Treatment; pre-emergence (soil spray). To be noted: 120 g a.i./ha, read-out: Herbicidal activities (inhibition rate) Aegilops tauschii. The method, boiled down: (§2)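 Weed seeds were sown in 7 cm pots of sandy nutrient soil (pH 6.1, 1% organic matter), covered, bottom-watered and held 24 h in a constant-temperature illuminated room before the soil surface was sprayed in a traveling spray tower. Fresh-weight inhibition versus untreated plants was scored 21 days later.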

Experiment [5] deals with Alopecurus japonicus. The experiment is described as above. The settings on record: Dosage 240 g a.i./ha. The method, boiled down:
as §2

Experiment [6] has as its system Alopecurus myosuroides. The description is as above. The settings on record: Dosage 240 g a.i./ha. An outline of the steps:
as §2

Experiment [7] deals with Cyperus iria. Described as above. To be noted: 120 g a.i./ha, read-out: Herbicidal activities (inhibition rate) Cyperus iria. An outline of the steps: as §2
The test system of experiment [8] is Digitaria sanguinalis. The experiment is described as above. The settings on record: 120 g a.i./ha, read-out: Herbicidal activities (inhibition rate) Digitaria sanguinalis. The method, boiled down:
as §2

In experiment [9] the test system is Eclipta prostrata. The description is as above. To be noted: 120 g a.i./ha, read-out: Herbicidal activities (inhibition rate) Eclipta prostrata. The method, boiled down: as §2
Experiment [10] has as its system Eleusine indica. The description is as above. To be noted: Dosage 240 g a.i./ha. The method, boiled down:
as §2

Experiment [11] deals with Leptochloa chinensis. The experiment is described as above. To be noted: Dosage 240 g a.i./ha. The method, boiled down: as §2
The test system of experiment [12] is Lolium multiflorum. Described as above. The settings on record: Dosage 240 g a.i./ha. The method, boiled down: as §2

Take `COC(=O)[C@H]1C[C@@H](NC(=O)C2(C(F)(F)F)CC(c3cc(F)cc(F)c3)=NO2)C1` (mixture of isomers) [I-208]: the inhibition at 60 g/ha in experiment [1], in experiment [2] and in experiment [3] was 80 to 100% each time. In addition, the inhibition at 120 g/ha in experiment [4], in experiment [7], in [8] and in [9] was 80 to 100% throughout. For the same compound, the “Herbicidal activities, Alopecurus japonicus (inhibition rate class)” value in [5] was “A (A indicates that the inhibition rate was greater than or equal to 80% to 100%)”. Also, in [6], the “Herbicidal activities, Alopecurus myosuroides (inhibition rate class)” value is listed as “A (A indicates that the inhibition rate was greater than or equal to 80% to 100%)”. The “Herbicidal activities, Eleusine indica (inhibition rate class)” value in [10] is reported as “A (A indicates that the inhibition rate was greater than or equal to 80% to 100%)”. In experiment [11], the “Herbicidal activities, Leptochloa chinensis (inhibition rate class)” value is given as “A (A indicates that the inhibition rate was greater than or equal to 80% to 100%)”. Also, in experiment [12], the “Herbicidal activities, Lolium multiflorum (inhibition rate class)” value was “A (A indicates that the inhibition rate was greater than or equal to 80% to 100%)”.
